Data taken from article PMC4446607, “Tilapia Piscidin 4 (TP4) Stimulates Cell Proliferation and Wound Closure in MRSA-Infected Wounds in Mice” (Marine Drugs, 2015).

Key:
MRSA = assay: Mouse model of MRSA sepsis (survival, lethality, bacterial counts in organs); type: in vivo, Staphylococcus aureus; details: for Survival rate at eight days after MRSA infection: i.p. treatment 10 min later: TP4 0.005 mg/g, vancomycin 0.01 mg/g, methicillin 0.01 mg/g; for Survival rate at eight days after MRSA infection / % lethality: n = 10; for Mean ± SD Count (CFU/mL) Blood / Mean ± SD Count (CFU/mL) Liver / Mean ± SD Count (CFU/mL) Mesenteric Lymph Nodes / Mean ± SD Count (CFU/mL) Peritoneum / Mean ± SD Count (CFU/mL) Spleen / % lethality: MRSA-infected mice, TP4 0.005 mg/g, methicillin or vancomycin 0.01 mg/g; for Mean ± SD Count (CFU/mL) Blood / Mean ± SD Count (CFU/mL) Liver / Mean ± SD Count (CFU/mL) Mesenteric Lymph Nodes / Mean ± SD Count (CFU/mL) Peritoneum / Mean ± SD Count (CFU/mL) Spleen: 48 h after i.p. treatment; for % lethality: monitored for 2 day following i.p. injection
Method: (§1) An MRSA strain commonly associated with human wound infections was selected to generate a polymicrobial solution [32]. The MRSA strain is a clinical isolate from stool obtained from Taipei City Hospital (Heping Fuyou branch). The strain was identified by routine laboratory methods and stored in 20% (vol/vol) glycerol at −80 °C. Tryptic Soy Broth (TSB) was used as the culture medium. HaCaT human keratinocyte cell line and Hs-68 human foreskin fibroblast cell line were grown in DMEM containing 10% (v/v) FBS, 0.37% (w/v) NaHCO3, penicillin (100 unit/mL), streptomycin (100 μg/mL), 0.1 mM NEAA, and 1 mM sodium pyruvate at 37 °C in a humidified incubator under 5% CO2 and 95% air. The cells were harvested at ca. 90% confluence (ca. 10^6 cells/10-cm dish). Balb/c female mice were used for the experiments. All mice were housed in cages under specific pathogen-free conditions, and given water and standard laboratory chow ad libitum during the experiments. All animal handing procedures were in accordance with National Taiwan Ocean University (NTOU) guidelines. All procedures were approved by the Animal Care and Use Committee of NTOU.
Female Balb/c mice (6–8 weeks old) were injected intraperitoneally with 10^6 CFU MRSA per mouse. Ten minutes after MRSA injection, mice were injected intraperitoneally with vancomycin (0.01 mg/g mouse body weight), methicillin (0.01 mg/g mouse body weight), or TP4 (0.005 mg/g mouse body weight). In a second set of experiments, mice were given intraperitoneal injections of TP4 (0.005 mg/g mouse body weight) at 10, 60, 120, or 180 min after MRSA injection. Survival rate and status were recorded every 24 h for up to 192 h. To examine bacterial dissemination, mice were sacrificed at 48 h after injection with antibiotics or TP4, and the bacterial numbers in blood, peritoneum, spleen, liver, and mesenteric lymph nodes were recorded. Colony counts from the diluted bacterial solutions were expressed relative to those at the start of treatment. These experiments consisted of four groups, and each group contained 10 mice.

[1] = test system: TNF, IL-6 and IL-1 in serum; assay: Serum cytokines (TNF, IL-6, IL-1) by ELISA in mice with MRSA-infected wounds; type: in vivo; details: MRSA-infected wound
Method: (§2) Female Balb/c mice (6–8 weeks old) were used for wound healing experiments. All mice were housed individually to prevent fighting and further damage to the wounds, and they were provided with food and water ad libitum. Mice were maintained on a 12 h light: dark cycle at room temperature, and acclimatized to the environment for at least a week before use in experiments. All researchers wore caps, sterile gloves, gowns, and shoe covers when handling mice. Hair was removed from the back of the mice by shaving, and a full thickness wound (1 cm in diameter) was then created in the exposed region. Each wound was inoculated with 50 µL of broth mix containing 10^6 CFU (colony forming units) of MRSA. At 5 min after inoculation, 50 µL TP4 (2 mg/mL) in a total volume of 0.1 mL were applied to the wound. Thirty minutes after treatment, wounds were covered with Tegaderm (3 M, St. Paul, MN, USA) to maintain uniformity, and to prevent the mice from removing the treatments. Based on initial experiments, we examined the wounds at 3, 7, 14, and 21 days post-injury, so as not to disturb the infection. Such examinations captured the transitions from inflammatory to regenerative, and regenerative to resolving phases of wound healing. Animals were subsequently euthanized by CO2 inhalation and the wounds assessed. Four individuals in each group were examined at each time point for each experiment. Each wound was measured and then removed from the animal, with unwounded skin taken from the contralateral dorsum as a control. Each biopsy was divided into six sections, with three sections being used for tensiometry and histology, and three sections for quantitative determination of microbial load. Wound healing studies were repeated in triplicate.
Skin tissues were removed and fixed as previously described. In brief, the cryosections were fixed with 4% formaldehyde, and the tissue samples were stained with VEGF. IHC was analyzed by three independent investigators. Images were taken using a BX-51 microscope (Olympus, Japan). ELISA was performed as previously described.

MRSA-infected wounds = assay: Mouse model of wound healing, full-thickness wounds contaminated with MRSA (wound closure); type: in vivo, Balb/c mice
Method: as §2, with “Thirty minutes after treatment, wounds were covered with Tegaderm (3 M, St. Paul, MN, USA) to maintain uniformity, and to prevent the mice from removing the treatments. Based on initial experiments, we examined the wounds at 3, 7, 14, and 21 days post-injury, so as not to disturb the infection. Such examinations captured the transitions from inflammatory to regenerative, and regenerative to resolving phases of wound healing.” left out, “Four individuals in each group were examined at each time point for each experiment.” left out, “Wound healing studies were repeated in triplicate.” left out
Tracings were taken immediately after injury. For uncontaminated wounds, wound size was determined every second day. […] Wound areas were determined using the Macintosh Adobe Photoshop program, Histogram Analysis. […]

[2] = test system: keratin 10 and keratin 17 gene expression in HaCaT cells; assay: Real-time qPCR of keratin 10 and keratin 17 gene expression in HaCaT cells; type: cell-based, human; details: TP4 6.25 µg/mL, 48 h, GAPDH reference
Method: (§3) Total RNA was isolated from HaCaT and Hs-68 cells, and purified using a Qiagen RNeasy kit. Reverse transcription into cDNA was performed with an iScript cDNA Synthesis Kit (Cat. No. 1708991; BIO-RAD, Hercules, CA, USA) according to the manufacturer’s recommendations. Real-time polymerase chain reaction (PCR) was performed to analyze gene expression, using […] of cDNA, 2× iQSYBR® Green Supermix (Cat. No. 1708882; BIO-RAD, Hercules, CA, USA), and 500 nM of forward and reverse primers against selected genes or GAPDH (reference gene), according to the instructions of the manufacturer. Quantitative PCR was performed under the following conditions: 40 cycles of 1 min at 95 °C, 30 s at 55 °C, and 1 min at 72 °C. The threshold cycle number (Ct) was calculated with BIO-RAD software. Relative transcript quantities were calculated using the ΔCt method with GAPDH as the internal reference gene. ΔCt is the difference in the threshold cycles of messenger (m) RNA for selected genes relative to those of GAPDH mRNA. Real-time PCR was performed in triplicate for each experimental group.

[3] = test system: collagen I, collagen III and KGF gene expression in Hs-68 cells; assay: Real-time qPCR of collagen I, collagen III and KGF gene expression in Hs-68 cells; type: cell-based, human; details: TP4 6.25 μg/mL, 48 h, GAPDH reference
Method: as §3

[4] = test system: Hs-68 human foreskin fibroblast cell line; type: cell-based
Method: as §1
(§4) Cells were cultured at a density of 5 × 10^4 cells per well in flat-bottomed 96-well plates, and supplemented with various combinations of TP4. After 24 h, cell viability were measured with neutral red (Cat. No. N4638; Sigma, St. Louis, MO, USA) uptake assay, Cytotoxicity Detection Kit (LDH) (Cat. No. 11644793001; Roche Applied Science, Indianapolis, IN, USA), and CellTiter 96 Aqueous One Solution (Cat. No. G1111; Promega, Madison, WI, USA), following the vendors’ instructions.

[5] = test system: HaCaT human keratinocyte cell line; type: cell-based; details: HaCaT cells
Method: as §1, §4

[6] = test system: EGF, TGF-β and VEGF gene expression in wound tissue; assay: Real-time RT-PCR of EGF, TGF-β and VEGF gene expression in wound tissue of MRSA-infected mice; type: in vivo
Method: as §3
Tracings were taken immediately after injury. For uncontaminated wounds, wound size was determined every second day. […] Wound areas were determined using the Macintosh Adobe Photoshop program, Histogram Analysis. The percentage of wound contraction was calculated as follows: % Wound contraction = (A0 − At)/A0× 100, where A0 is the original wound area, and At is the area of wound at the time of biopsy, accordingly. Cell proliferation gene expression was performed by real-time PCR, using the methods described in Section 4.4 above.

[7] = Balb/c mice, MRSA 1 × 10^6 CFU/mouse i.p.
[8] = Balb/c mice, MRSA 1 × 10^6 CFU/mouse i.p., TP4 0.005 mg/g i.p.

Compound	Survival rate at eight days after MRSA infection (MRSA; [7])	Mean ± SD Count (CFU/mL) Blood (MRSA)	Mean ± SD Count (CFU/mL) Liver (MRSA)	Mean ± SD Count (CFU/mL) Mesenteric Lymph Nodes (MRSA)	Mean ± SD Count (CFU/mL) Peritoneum (MRSA)	Mean ± SD Count (CFU/mL) Spleen (MRSA)	% lethality (MRSA)	further results
COc1cccc(OC)c1C(=O)N[C@@H]1C(=O)N2[C@@H]1SC(C)(C)[C@@H]2C(=O)O [methicillin]	0%	4.1 × 10^7 ± 1.3 × 10^7 B CFU/mL	2.7 × 10^8 ± 3.3 × 10^6 B CFU/mL	4.1 × 10^7 ± 3 × 10^7 C CFU/mL	2.3 × 10^9 ± 2 × 10^8 B CFU/mL	1.5 × 10^8 ± 2.1 × 10^7 B CFU/mL	20 ^B %	–
H-FIHHIIGGLFSAGKAIHRLIRRRRR-OH [TP4, Tilapia piscidin 4]	100%	0 ^A CFU/mL	2.4 × 10^6 ± 1 × 10^6 A CFU/mL	6 × 10^5 ± 1 × 10^5 A CFU/mL	1 × 10^6 ± 1 × 10^6 A CFU/mL	3 × 10^6 ± 1.2 × 10^6 A CFU/mL	0 ^A %	IL-1 compared with control wounds [1]: statistically significant enhancement; Induction of IL-6 compared to MRSA-infected positive controls ([1]; three days after treatment): decreased induction; Induction of TNF compared to MRSA-infected positive controls ([1]; three days after treatment): decreased induction; Wound size by 14 days (MRSA-infected wounds; MRSA-contaminated wounds, P < 0.05): smaller than that of the vancomycin-treated group; Wound closure compared with the control (MRSA-infected wounds; contaminated wounds (increase not observed in uncontaminated wounds)): accelerated; Keratin 10 gene expression versus untreated controls [2]: significantly increased; Keratin 17 gene expression versus untreated controls [2]: did not affect; Collagen I gene expression versus untreated controls [3]: enhanced; Collagen III gene expression versus untreated controls [3]: enhanced; KGF gene expression versus untreated controls [3]: enhanced; TP4 concentration at which stimulation of proliferation / gene expression was detectable ([4]; Hs-68 cells): 6.25 µg/mL; Doses at which Hs-68 cell proliferation was significantly increased ([4]; change in cell viability compared to the untreated group, neutral red, LDH, MTT): 2.5~10 μg/mL; TP4 concentration at which stimulation of proliferation / gene expression was detectable [5]: 6.25 µg/mL; EGF gene expression compared to control and vancomycin-treated mice ([6]; 3 days post-infection): enhanced gene expression; VEGF gene expression compared to control and vancomycin-treated mice ([6]; 14 days post-infection): enhanced gene expression; TGF gene expression compared to control and vancomycin-treated mice ([6]; seven days post-infection): enhanced gene expression; Survival rate, TP4 injected 10 min after MRSA (MRSA; [8]): 100%; Survival rate, TP4 injected 60 min after MRSA (MRSA; [8]): 80%; Survival rate, TP4 injected 120 min after MRSA (MRSA; [8]): 60%; Survival rate, TP4 injected 180 min after MRSA (MRSA; [8]): 50%
CN[C@H](CC(C)C)C(=O)N[C@H]1C(=O)N[C@@H](CC(N)=O)C(=O)N[C@H]2C(=O)N[C@H]3C(=O)N[C@H](C(=O)N[C@H](C(=O)O)c4cc(O)cc(O)c4-c4cc3ccc4O)[C@H](O)c3ccc(c(Cl)c3)Oc3cc2cc(c3O[C@@H]2O[C@H](CO)[C@@H](O)[C@H](O)[C@H]2O[C@H]2C[C@](C)(N)[C@H](O)[C@H](C)O2)Oc2ccc(cc2Cl)[C@H]1O [vancomycin]	80%	8 × 10^4 ± 1.1 × 10^4 B CFU/mL	1.3 × 10^7 ± 1.8 × 10^5 B CFU/mL	1 × 10^7 ± 4 × 10^6 B CFU/mL	1.5 × 10^6 ± 1 × 10^5 A CFU/mL	1.4 × 10^7 ± 1.1 × 10^6 B CFU/mL	10%	–
